Our source for the inhibition, logP and Activity values is ChEMBL document CHEMBL2034898, “Inhibition of homologous recombination in human cells by targeting RAD51 recombinase” (J Med Chem, 2012).

As a reminder, the logP is the decadic logarithm of the partition coefficient of the neutral form, usually between octanol and water. Higher therefore signals higher lipophilicity.

Molecules are shown by their SMILES. Residue numbers refer to the chain shown, from its start. Active and inactive are the calls of the source. The rule behind the calls is not given here.

Series [1] addresses T1, DNA repair protein RAD51 homolog 1 (Homo sapiens) (UniProt Q06609).
T1 sequence (whole entry): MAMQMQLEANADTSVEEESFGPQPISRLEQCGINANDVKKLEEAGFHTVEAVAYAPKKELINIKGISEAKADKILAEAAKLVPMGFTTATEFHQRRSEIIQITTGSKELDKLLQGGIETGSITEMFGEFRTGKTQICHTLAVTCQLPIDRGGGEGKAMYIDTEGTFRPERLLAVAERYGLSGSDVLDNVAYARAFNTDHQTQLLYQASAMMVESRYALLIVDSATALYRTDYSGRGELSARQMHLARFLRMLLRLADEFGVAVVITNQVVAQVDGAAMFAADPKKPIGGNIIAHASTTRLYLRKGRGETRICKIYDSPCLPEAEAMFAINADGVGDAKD
The experiment in a line: Inhibition of human RAD51-mediated DNA strand exchange at 5 to 20 uM using pBSK (+) gapped and linear dsDNA substrates by joint molecule formation assay.

The target in series [2] is T1, DNA repair protein RAD51 homolog 1 (Homo sapiens). The experiment in a line: Inhibition of human RAD51 in HEK-GFP cells assessed as reduction in double-strand breaks-induced homologous recombination at 5 to 20 uM by chromosomally integrated DR-GFP reporter gene assay. Type of series: cell-based. (In general: A reporter such as luciferase makes a cellular process visible.)

Series [3] can be described thus: Lipophilicity, log P of the compound. In kind it is physicochemical. Particulars: octanol/water.
Series [4] addresses T2, Protein RecA (Escherichia coli K-12) (UniProt P0A7G6).
T2 sequence (whole entry): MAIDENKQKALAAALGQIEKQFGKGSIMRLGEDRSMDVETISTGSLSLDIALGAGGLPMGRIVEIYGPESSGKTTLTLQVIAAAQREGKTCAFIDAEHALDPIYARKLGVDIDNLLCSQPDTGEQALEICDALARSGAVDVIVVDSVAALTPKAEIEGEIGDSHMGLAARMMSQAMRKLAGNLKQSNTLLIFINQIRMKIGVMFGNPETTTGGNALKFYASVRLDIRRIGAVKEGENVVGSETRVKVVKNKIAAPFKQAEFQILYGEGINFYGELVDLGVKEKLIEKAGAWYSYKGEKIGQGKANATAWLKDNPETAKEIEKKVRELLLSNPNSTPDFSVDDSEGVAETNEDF
The experiment in a line: Binding affinity to Escherichia coli RecA at 50 microM by SPR method. For orientation: In SPR one partner is held on a chip, and binding of the other changes the refractive index at the surface.

In series [5] the target is T1, DNA repair protein RAD51 homolog 1 (Homo sapiens). To be noted: 20 uM.
Description: Inhibition of human RAD51-ssDNA filament formation at 20 uM added to free RAD51 prior to filament formation by D-loop formation assay
The test system of series [6] is HEK-GFP. In words: Effect on RAD51 expression in HEK-GFP cells by Western blotting. Particulars: Homo sapiens. In kind it is functional, cell-based.
Series [7] concerns the target T1, DNA repair protein RAD51 homolog 1 (Homo sapiens). To be noted: 200 uM.
Description: Inhibition of human RAD51 oligomerization at 200 uM by gel filtration method
The target of series [8] is T2, Protein RecA (Escherichia coli K-12). In words: Inhibition of Escherichia coli RecA-mediated DNA branch migration at 10 to 100 microM using [32P]-labeled 5'-joint molecules after 8 hrs by branch migration assay.
The test system of series [9] is HEK-GFP. In words: Effect on GFP expression in HEK-GFP cells transfected with pMX-GFP plasmid by Western blotting. To be noted: Homo sapiens. Type of series: functional, cell-based. (Immunoblotting shows a protein as a band on a membrane.)
Series [10] addresses T1, DNA repair protein RAD51 homolog 1 (Homo sapiens). To be noted: 20 uM. The source holds these as a separate data set.
Description: Inhibition of dsDNA binding to human RAD51-ssDNA filament assessed as reduction in coaggregation formation at 20 uM in presence of 50 mM NaCl by dsDNA coaggregation assay
The target of series [11] is T3, DNA repair protein RAD51 homolog 1 (Mus musculus) (UniProt Q08297).
T3 sequence (whole entry): T1 sequence (whole entry) with N10S, F46Y, A76T, A194G
Particulars: MEF, 5 uM.
Description: Inhibition of RAD51 in Tp53-/- MEF cells assessed as potentiation of 32 uM cisplatin-induced cytotoxicity at 5 uM incubated for 1 hr by clonogenic survival assay relative to untreated control

The target of series [12] is T1, DNA repair protein RAD51 homolog 1 (Homo sapiens). Particulars: HEK293, 5 uM.
Description: Inhibition of RAD51 in HEK cells assessed as potentiation of cisplatin-induced cytotoxicity at 5 uM in presence of RAD51 siRNA transfected 40 hrs before compound and cisplatin exposure for 16 hrs by clonogenic survival assay relative to untreated control
The target is the same in series [13]. Particulars: HEK293, 5 uM. This is another data set of the same source.
Description: Inhibition of RAD51 in HEK cells assessed as potentiation of cisplatin-induced cytotoxicity at 5 uM in presence of RAD51 siRNA transfected 40 hrs before compound and cisplatin exposure for 10 to 12 hrs by clonogenic survival assay relative to untreated control
Series [14] shares this target. To be noted: 25 uM.
Description: Inhibition of ssDNA binding to human RAD51 assessed as reduction in RAD51-90-mer ssDNA complex formation at 25 uM by EMSA method
Series [15] has the same target. Particulars: HEK293, 5 uM. The source holds these as a separate data set.
Description: Inhibition of RAD51 in HEK cells assessed as potentiation of cisplatin-induced cytotoxicity at 5 uM in presence of RAD51 siRNA transfected 40 hrs before compound and cisplatin addition by clonogenic survival assay relative to untreated control
For series [16] the target is unchanged. Particulars: HEK293, 25 uM.
Description: Inhibition of DNA binding to human RAD51 in irradiated HEK cells assessed as reduction in RAD51 foci formation at 25 uM by fluorescence microscopy relative to untreated control
The target of series [17] is T3, DNA repair protein RAD51 homolog 1 (Mus musculus). Particulars: MEF, 5 uM. The source holds these as a separate data set.
Description: Inhibition of RAD51 in MEF cells assessed as potentiation of MMC-induced cytotoxicity at 5 uM incubated for 1 hr in presence of 0.01 uM PARP1 inhibitor AZD2281 by clonogenic survival assay relative to untreated control
Series [18] concerns MEF. The experiment in a line: Toxicity in Tp53-/- MEF cells assessed as cell viability at 5 uM by incubated for 1 hr by clonogenic survival assay. In kind it is cell-based. Particulars: mouse.
In series [19] the target is T1, DNA repair protein RAD51 homolog 1 (Homo sapiens). Particulars: 25 uM. This is another data set of the same source.
Description: Inhibition of human RAD51 ATPase activity at 25 uM by ATP hydrolysis assay
The target of series [20] is T2, Protein RecA (Escherichia coli K-12). In words: Inhibition of Escherichia coli RecA-mediated DNA strand exchange at 10 to 100 microM using pBSK (+) gapped and linear dsDNA substrates by joint molecule formation assay.
Series [21] has as its system MEF. The experiment in a line: Toxicity in MEF cells assessed as cell viability at 5 uM by incubated for 1 hr by clonogenic survival assay. Type of series: cell-based. To be noted: mouse.
Series [22] addresses T3, DNA repair protein RAD51 homolog 1 (Mus musculus). Particulars: MEF, 5 uM. This is another data set of the same source.
Description: Inhibition of RAD51 in MEF cells assessed as potentiation of MMC-induced cytotoxicity at 5 uM incubated for 1 hr by clonogenic survival assay relative to untreated control
For series [23], the system named is HEK-GFP. The experiment in a line: Effect on I-SceI expression in HEK-GFP cells by Western blotting. In kind it is functional, cell-based. To be noted: Homo sapiens.
For series [24], the target named is T3, DNA repair protein RAD51 homolog 1 (Mus musculus). To be noted: MEF, 5 uM. The source holds these as a separate data set.
Description: Inhibition of RAD51 in Tp53-/- MEF cells assessed as potentiation of 1 uM MMC-induced cytotoxicity at 5 uM incubated for 1 hr by clonogenic survival assay relative to untreated control

Consider `Cc1cc2nc3c(nc2cc1C)[C@@]1(C(=O)O)CCC3(C)C1(C)C`, for which the inhibition result in [1] and in series [2] was “inactive” each time. The compound also had a logP in series [3] of 3.7.
For the compound `O=c1c2ccccc2nc(/C=C/c2cccnc2)n1Cc1ccccc1`, the result (in series [4]; in the series with HEK-GFP [6]; in the series on HEK-GFP [9]; in the series with HEK-GFP [23]) was inactive. The inhibition entry in series [5], in series [10], in [11], in series [12], in series [13] and in series [14] was “Active” in each case. For the same compound, the inhibition result in [15], in series [16], in series [17], in series [19] and in series [24] was “Active” throughout. Also, the inhibition entry in series [7], in series [8], in series [20] and in [22] was “inactive” in each case. In addition, the Activity entry in the series with MEF [18] and in the series on MEF [21] was “Non-toxic” in each case. In addition, the logP in series [3] was 3.7.
